According to patent publication US10233205B2, “Magnetic resonance imaging contrast agent capable of detecting hydrogen peroxide and reducing reactive oxygen species” (Auburn University, priority 2015, dated 2019):
“And” between values parts separate entries of the source, which are not always exact repeats. Identical values can stand only once. “Also recorded” adds a separate entry of the source.

Legend:
[1] = Superoxide scavenging, hypoxanthine-xanthine oxidase / lucigenin luminescence; format: biochemical; conditions: 50 mM Tris-HCl pH 8.0
Protocol: Superoxide was produced in situ from a reaction between xanthine and xanthine oxidase. The subsequent reaction of the O2^− with lucigenin provided a spectroscopic signal that can be used to provide a qualitative measure of an anti-oxidant's ability to degrade O2^−. The copper/zinc superoxide dismutase isolated from bovine erythrocytes (0.001-100 U/ml, Calbiochem) was used as a positive control. The assay was carried out in a total volume of 1 mL containing 50 mM tris (pH 8.0), hypoxanthine (50 μM), xanthine oxidase (0.005 U/ml, Calbiochem) and dark adapted lucigenin (5 μM) in the presence of a complex (0.1 nM-10 μM) or their vehicle. Reactions were carried out at room temperature and were initiated by the addition of xanthine oxidase to the hypoxanthine-containing solution. Luminescence was measured using a TD-20/20 (Turner Designs) luminometer and expressed as relative light units (RLU). Luminescence was measure for four 10 s integrations after an initial delay of 3 s. The four RLU values were averaged, and each concentration was expressed as a percent of that produced in the presence of vehicle. Each assay data point was performed in duplicate and assays were repeated three times.
Superoxide was generated using a hypoxanthine-xanthine oxidase reaction and detected using the chemiluminescent probe lucigenin. Reactions were carried out in 50 mM Tris-HCl (pH 8.0) containing either 1, 2, or Cu/Zn SOD from bovine erythrocytes (insert). Data for the various concentrations of 1, 2, and SOD are expressed as a percentage of luminescence in the presence of vehicle.
The ability of 3 to degrade superoxide was tested using a standard technique that uses the reaction between xanthine oxidase and xanthine to generate O2^− and a subsequent reaction with the chemiluminescent probe lucigenin to detect it. Reactions were carried out in 50 mM Tris-HCl (pH 8.0). Data for the various concentrations of Mn(II) complex are expressed as a percentage of luminescence in the presence of vehicle.

[2] = Metal exchange with Fe(ClO4)2 followed by UV/vis; format: physicochemical; conditions: 0.10 mM complex + 0.10 mM Fe(ClO4)2, MeCN
Protocol: (§1) Over this time, collected UV/vis spectra (FIGS. 2 & 3) display changes in the region between 200 nm and 300 nm which are consistent with the oxidation of the quinol to a para-quinone. Past 24 h, the solution begins to turn brown, consistent with oxidation of the manganese to Mn(III) and/or Mn(IV). For the spectrophotometric analysis, the Fe(ClO4)2 solution was added to a MeCN solution containing 0.10 mM [Mn(Hptp1)(MeCN)]^2+; the mixture was scanned at 0 min (dashed red), 30 min (dashed pink), and 60 min (dashed blue). […] At 15 h, approximately 11% of the Mn(II) has been displaced by Fe(II) as indicated by data in FIG. 3.
(§2) The stability of 3 to air and adventitious metal ions was assessed primarily by UV/vis spectroscopy. […] Complex 3, however, is susceptible to metal exchange. When equimolar amounts of 3 and Fe(ClO4)2 are mixed in MeCN, 80% of the Mn(II) is replaced by Fe(II) by 3 h.

Cyclic voltammetry = format: physicochemical; conditions: for ΔE, separation between anodic and cathodic peaks: ligand redox feature
Protocol: All ^1H and ^13C NMR spectra were recorded on a 400 MHz AV Bruker NMR spectrometer; all reported resonances were referenced to internal standards. Electron paramagnetic resonance (EPR) spectra were collected using a Bruker EMX-6/1 X-band EPR spectrometer operated in the perpendicular mode. The acquired data were analyzed with the program EasySpin. Each sample was run as a frozen solution in a quartz tube. High-resolution mass spectrometry (HR-MS) data were obtained at the Mass Spectrometer Center at Auburn University on a Bruker microflex LT MALDI-TOF mass spectrometer via direct probe analysis operated in the positive ion mode. IR data were collected using a Shimadzu IR Prestige-21 FT-IR spectrophotometer. A Johnson Matthey magnetic susceptibility balance (model MK I#7967) was used to measure the magnetic properties of the Mn(II) complex with H2qtp1; the reported eff value was the average of those measured for two independently prepared solid samples. Atlantic Microlabs (Norcross, Ga.) performed the elemental analyses (C, H, N). All samples submitted for elemental analysis were crystallized and dried under vacuum prior to their shipment. All cyclic voltammetry was performed under N2 at 294 K using an Epsilon electrochemistry workstation (Bioanalytical System, Inc.), a gold working electrode, a platinum wire auxiliary electrode, and a Ag/AgCl reference electrode.
Complex 3 was studied by cyclic voltammetry (CV) in water containing 50 mM phosphate to buffer the solution to pH 7.2. A redox feature with E1/2 of 60 mV vs. Ag/AgCl (295 mV vs. NHE) is observed (FIG. 22).
Similar redox processes were found for both 1 and a Zn(II)-H2qtp1 complex, leading us to assign the 60 mV redox event to the oxidation of the ligand, rather than the manganese. The separation between the anodic and cathodic peaks (ΔE) for this feature is 230 mV; this is much less reversible than its analog in the CV of 1 (75 mV). A second and entirely irreversible redox event at 725 mV (960 mV vs NHE) is tentatively assigned to the oxidation of Mn(II) to Mn(III). For this analysis, the scan rate was 100 mV/s. For the quasi-reversible feature: E1/2=57 mV vs. Ag/AgCl, ΔE=232 mV. An irreversible feature with Epc=725 mV is also observed.

[3] = T1-weighted relaxivity (r1) on 3 T clinical MRI scanner; format: physicochemical; conditions: 50 mM HEPES pH 7.00, 3 T
[4] = Stability in aerobic solution / to pH; format: physicochemical
Protocol: as §1, §2

[5] = Potentiometric pH titrations, Hyperquad model
Description: The speciation in water was more rigorously probed with potentiometric pH titrations. […] The quinolic protons likely deprotonate at higher pH values (pKa˜10), but we were unable to obtain the high pH data necessary to confirm this.
The data were fit to a model containing the protonated forms of the free ligand and four Mn(II) complexes with the ligand in various protonation states: [Mn(H2qtp2)], [Mn(H3qtp2)]^+, [Mn(H4qtp2)]^2+, and [Mn(H4qtp2)]^3+ (Scheme 4).

Compound | superoxide scavenging [1] | displacement of Mn(II) by Fe(II) ([2]; 0-60 min) | Mn(II) displaced by Fe(II) ([2]; 15 h) | ΔE, separation between anodic and cathodic peaks (Cyclic voltammetry) | E1/2 vs. NHE (Cyclic voltammetry; phosphate buffer pH 7.2, ligand feature) | r1 after addition of KO2 ([3]; 2 mM KO2) [M⁻¹ s⁻¹] | r1 after addition of NaClO ([3]; 10 mM NaClO) [mM⁻¹ s⁻¹] | r1 of fully oxidized sensor ([3]; oxidized by DDQ) [mM⁻¹ s⁻¹] | stability in aerobic solution [4] | E1/2 vs. Ag/AgCl (Cyclic voltammetry; phosphate buffer pH 7.2, quasi-reversible ligand feature) | irreversible redox event (Epc) vs. Ag/AgCl (Cyclic voltammetry; tentatively Mn(II) to Mn(III)) [mV] | irreversible redox event vs NHE (Cyclic voltammetry; tentatively Mn(II) to Mn(III)) [mV] | percentage of free Mn(II) ([5]; pH 7.0) [%] | manganese bound by some form of the ligand ([5]; pH 7.4) | error introduced by air oxidation ([4]; aerated MeOH, 4 h) [%] | decrease in intensity of 302 nm quinol feature ([4]; aerated MeOH, 12 h)
CC#N.Cc1ccc(O)c(CN(CCN(Cc2ccccn2)Cc2ccccn2)Cc2ccccn2)c1.[Mn+2].[O-][Cl+3]([O-])([O-])[O-].[O-][Cl+3]([O-])([O-])[O-] [Complex 2, reference compound] | successfully intercepts O2^− | negligible displacement | approximately 11% |  |  |  |  |  |  |  |  |  |  |  |  | 
CC#N.O=S(=O)([O-])C(F)(F)F.O=S(=O)([O-])C(F)(F)F.[Mn+2].[O-]c1ccc(O)cc1CN(CCN(Cc1ccccn1)Cc1ccccn1)Cc1ccccn1 [Complex 1, Acetonitrilo(N-(2,5-dihydroxy-benzyl)-N,N′,N′-tris(2-pyridinylmethyl)-1,2-ethanediamine)manganese(II) triflate] | successfully intercepts O2^− |  |  | 75 mV | about 300 mV | 5520 | 4.82 | 5.56 | sufficiently stable in aerobic water solutions; also recorded: slightly sensitive towards oxygen |  |  |  |  |  |  | 
cis-Dibromo(N,N′-bis(2,5-dihydroxybenzyl)-N,N′-bis(2-pyridinylmethyl)-1,2-ethanediamine)manganese(II) [Complex 3] | successfully intercepts O2^− |  |  | 230 mV and 232 mV |  |  |  |  | moderately stable in aerobic aqueous solutions above pH 7.0 | 60 mV and 57 mV | 725 | 960 | 1.4 | Over 99% | < 5 | about 10%
